Test system: NCI-H358 cells
Assay: pERK quantification (Meso Scale Discovery)
Format: cell-based, human
Description: Active RAS signals through RAF and MEK to induce phosphorylation of ERK (phospho-ERK). Phospho-ERK levels were quantified using a plate-based electrochemiluminescent assay (MESO SCALE DISCOVERY). […]
252 (175 cm2) using RPMI medium supplemented with 10% fetal bovine serum. Cultures
253 were incubated at 37 °C and 5% CO2 in a humidified atmosphere, with medium change
254 or subcultivation 2-3 times a week. […]
257 atmosphere, with medium change or subcultivation 2-3 times a week. In case starvation
258 conditions were used in combination with EGF stimulation, cells were kept in medium
260 stimulation (50ng/mL) for 10 minutes. […]
308 The next day the compounds (30µL of serial dilutions) were added in triplicates. The
310 nano molar minimum. Compounds (Stock: 10mM in 100% DMSO) were diluted in
311 medium. Cells were incubated at 37°C and 5% CO2 in a humidified atmosphere for 14
312 days. […]
315 wavelength was 544/15 nm, emission 590 nm. Data were fitted by iterative calculation
316 using a sigmoidal curve analysis program based on GraphPAD Prism with variable hill
319 MAPK pathway signaling (pERK, pAKT quantification)
320 MSD 96-well multispot assays for Phospho/Total ERK1/2 and Phospho(Ser473)/Total
321 AKT whole cell lysate kits (Meso Scale Discovery, Gaithersburg, MD, #K15107D,
322 #K15100D) were used according to the manufacturer’s instructions. Briefly, 50.000
323 cells were seeded per well and grown in 96 well plates. Cells were washed in ice cold
324 PBS and lysed in 50µL ice-cold lysis buffer supplemented with the provided protease
325 inhibitors. MSD plates were blocked for 1h, washed and 40µL of lysate was added in
326 duplicates to wells and incubated at room temperature for 3 hours while shaking at
327 400rpm. To measure the amount of phosphorylated AKT or ERK, the specific primary
328 antibody was added for 1 hour. After washing, read buffer was added and the plates
329 were measured on a SECTOR 6000 instrument (Meso Scale Discovery). Samples were
330 normalized to total ERK or total AKT values, respectively.
332 RAS GTP detection (Ras G-LISA Activation assay):
333 Ras-GTP levels were analyzed using a Ras G-LISA assay kit (Cytoskeleton Inc.,
335 600.000 cells were seeded in 6 wells and grown to 70% confluence. Cells were washed
337 provided protease inhibitor cocktail. Lysates were quickly frozen in liquid nitrogen
338 and stored at -80°C until further usage. After normalizing protein concentration, 40µg
339 of protein was added in duplicates to wells of the Ras G-LISA plate coated with Ras
340 GTP-binding protein and incubated at 4°C for 30 minutes while shaking at 400rpm. […]
344 HRP detection reagent. Absorbance was measured by 490nm using an EnSpire
345 Multimode Reader (Perkin Elmer). Background was determined by a negative control […]

With `C=CC(=O)N1CCN(c2ncnc3c(F)c(-c4c(O)cccc4F)c(Cl)cc23)CC1` [ARS-1620, reference compound] the “inhibition of pERK compared with 1” value (high growth factor conditions, 2 h) was “similar, albeit more extended, inhibition of pERK”.
With `Cn1cnc(Cn2ccc3ccc(CNCc4[nH]c5ccccc5c4[C@H]4NC(=O)c5ccc(O)cc54)cc32)c1` [Compound 1] the EC50 (Homo sapiens, NCI-H358, high growth factor conditions, 2 h, read-out: EC50 inhibition of pERK relative to total ERK) was 5.8 µM and the pERK levels (starved 24 h low serum, 2 h compound, then EGF) was “dose-dependently reduced”.
With `CN(C)Cc1[nH]c2ccccc2c1[C@H]1NC(=O)c2ccc(O)cc21` [Compound 18] the “decrease in phospho-ERK levels” value (at 50 µM, 2 h after treatment) was “almost complete inhibition”.
